Test results from patent US20240383908A1, “SYNTHESIS AND APPLICATION OF PHOSPHATASE DEGRADER” (HINOVA PHARMACEUTICALS INC., priority 2021, published 2024).

How the values were obtained:
Type in all cases: cell-based
SHP2 protein [1] = target: T1, SHP2 protein (Homo sapiens, UniProt Q06124); experiment: Degradation activity on SHP2 protein in NCI-H358 cells (Western blot, DC50); design: endogenous in cells; conditions: read-out: Degradation activity for differenct cell lines NCI-H358 (DC50)
T1 sequence (Q06124 1-593): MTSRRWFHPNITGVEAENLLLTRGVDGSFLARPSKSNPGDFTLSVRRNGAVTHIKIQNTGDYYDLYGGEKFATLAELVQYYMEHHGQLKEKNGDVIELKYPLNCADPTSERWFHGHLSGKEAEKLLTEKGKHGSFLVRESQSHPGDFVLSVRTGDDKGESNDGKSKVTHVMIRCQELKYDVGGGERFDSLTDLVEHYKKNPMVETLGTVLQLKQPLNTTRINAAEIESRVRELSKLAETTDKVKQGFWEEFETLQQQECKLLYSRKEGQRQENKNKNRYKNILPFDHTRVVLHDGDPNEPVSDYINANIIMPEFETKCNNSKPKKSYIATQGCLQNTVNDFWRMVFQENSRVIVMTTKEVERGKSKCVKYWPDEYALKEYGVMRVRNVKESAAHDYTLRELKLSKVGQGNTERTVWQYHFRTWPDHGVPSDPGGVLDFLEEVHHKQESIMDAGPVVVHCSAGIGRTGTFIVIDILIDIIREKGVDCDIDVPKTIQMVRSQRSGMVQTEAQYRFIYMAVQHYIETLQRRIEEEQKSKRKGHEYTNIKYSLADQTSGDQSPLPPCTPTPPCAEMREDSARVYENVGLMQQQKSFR
Outline: (§1)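 DC50 is the concentration degrading 50% of SHP2 relative to DMSO control. It was derived by fitting Western blot band densitometry (anti-SHP2, GAPDH reference) from cells exposed 24 h to 0.1–100 nM compound in 0.1% DMSO.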

SHP2 protein [2] = target: T1, SHP2 protein; experiment: Degradation activity on SHP2 protein in MV-411 cells (Western blot, DC50); design: endogenous in cells; conditions: MV411 cells, 24 hours, read-out: Degradation activity for differenct cell lines MV411 (DC50)
Outline: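 Western blot of SHP2 (GAPDH loading control, 30 μg protein/lane) in lysates of MV-411 cells exposed 24 h to final compound concentrations of 100, 10, 3, 1, 0.3 and 0.1 nM (0.1% DMSO). Degradation relative to DMSO set at 100%; DC50 derived by curve fitting.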

SHP2 protein [3] = target: T1, SHP2 protein; experiment: Degradation activity on SHP2 protein in MIA Paca-2 cells (Western blot, DC50); design: endogenous in cells; host or cells: MIA Paca-2 cells; conditions: read-out: Degradation activity for differenct cell lines MIA Paca-2 (DC50)
Outline: as §1

MIA Paca-2 = experiment: Inhibition of cell proliferation, MIA Paca-2 (CCK-8); conditions: Homo sapiens, MIA Paca-2 cells, read-out: Inhibition activity on the proliferation of different cell lines MIA Paca-2 (IC50)
Procedure: (§2) (1) MV-411 cells were cultured in the cell culture medium, and then well-growing cells were selected and inoculated in a 96-well plate at 80 μL/well, with 2×10^4 cells/well. The plate was incubated overnight in a 5% CO2 cell incubator at 37° C.
(§3) (2) 10 mM storage solution of each drug was prepared using dimethylsulfoxide (DMSO). The stock solution was diluted in a ratio of 1:3 with DMSO before use, and then the solution was serially diluted in a ratio of 1:3, to obtain 9 gradient concentrations. Each concentration was further diluted with the medium in a ratio of 1:200 (to ensure that the DMSO concentration in the culture system was 0.1%). Two wells were set for each concentration. 20 μL of each compound solution was added to the cell culture well (with a final concentration of 10 μM, 3.3 μM, 1.1 μM . . . ). The plate was gently shaken and mixed. Additionally, 3 negative control wells (only containing cells) and 3 blank control wells (only containing the medium) were included (6 wells were each added with 20 μL of DMSO diluted with the medium in a ratio of 1:200).
(§4) (1) After 5 days of cultivation, 10 μL of CCK-8 was added to each well, and then the plate was further cultured for 3 h at 37° C. in a 5% CO2 cell incubator.
(§5) (2) The absorbance (OD value) was measured at 450 nm with a multifunctional microplate reader. (3) The data were analyzed using the Dose-response-inhibition equation in GraphPad Prism8 software to obtain the IC50 value.
(§6) Using a similar method, the IC50 value (nM) for the inhibitory activity of the compound according to the present invention against different cell lines was obtained, and the results are shown in Table 3 (++++: IC50>5 μM; +++: 1 μM<IC50<5 μM; ++: IC50<1 μM).

NCI-H358 = experiment: Inhibition of cell proliferation, NCI-H358 (CCK-8); conditions: Homo sapiens, NCI-H358 cells, read-out: Inhibition activity on the proliferation of different cell lines NCI-H358 (IC50)
Procedure: as §2, §3, §4, §5, §6

MV-411 cell line = experiment: Inhibition of cell proliferation, MV-411 (CCK-8); conditions: Homo sapiens, MV4-11, 120 h, MV411 cells, 5 days, read-out: Inhibition activity on the proliferation of different cell lines MV411 (IC50)
Procedure: • MV-411 cell line (COBIER, CBP-60522) • FBS (GEMINI, Cat. No. 900-108) • 0.01M PBS (Biosharp, Cat. No. 162262) • IMDM (Hyclone, Cat. No. SH30228.01) • Penicillin-Streptomycin (Gibco, Cat. No. 15140122) • DMSO (Sigma, Cat. No. D5879) • Cell counting kit-8 (Signalway Antibody, Cat. No. CP002) • Centrifuge Tube, 15 ml (Excell Bio, Cat. No. CS015-0001) • Cell Culture Dish, (WHB, Cat. No. CS016-0128) • 96-well cell culture cluster (Corning, Cat. No. 3599)
• (1) Cell culture medium: IMDM medium+10% FBS+1% Pen Strep; • (2) PBS buffer: PBS powder was dissolved in 2 L of ultrapure water and sterilized;
as §2, §3, §4, §5

| DC50 (SHP2 protein [1]) | DC50 (SHP2 protein [2]) | DC50 (SHP2 protein [3]) | IC50 (MIA Paca-2) | IC50 (NCI-H358) | IC50 (MV-411 cell line) | SMILES |
| --- | --- | --- | --- | --- | --- | --- |
| > 1000 nM | < 100 nM |  |  |  |  | Cc1ncsc1-c1ccc([C@H](C)NC(=O)[C@@H]2C[C@@H](O)CN2C(=O)[C@@H](NC(=O)CCCCCN2CCC3(C2)CN(CCC(=O)Nc2cccc(Sc4cnc(N5CCC(C)(N)CC5)cn4)c2)C3)C(C)(C)C)cc1 [Compound 46] |
| 100 to 1000 nM | < 100 nM | 100 to 1000 nM |  |  |  | Cc1ncsc1-c1ccc([C@H](C)NC(=O)[C@@H]2C[C@@H](O)CN2C(=O)[C@@H](NC(=O)c2cnc(N3CCC4(CN(CCC(=O)Nc5cccc(Sc6cnc(N7CCC(C)(N)CC7)cn6)c5)C4)C3)nc2)C(C)(C)C)cc1 [Compound 64] |
| < 100 nM | < 100 nM | < 100 nM |  |  |  | Cc1ncsc1-c1ccc([C@H](C)NC(=O)[C@@H]2C[C@@H](O)CN2C(=O)[C@@H](NC(=O)c2cnc(N3CC(OCCCCCCCCC(=O)Nc4ccc(Sc5cnc(N6CCC(C)(N)CC6)cn5)cc4)C3)nc2)C(C)(C)C)cc1 [Compound 75] |
| < 100 nM | < 100 nM | < 100 nM |  |  |  | Cc1ncsc1-c1ccc([C@H](C)NC(=O)[C@@H]2C[C@@H](O)CN2C(=O)[C@@H](NC(=O)c2cnc(N3CCC(OCCCCCCCC(=O)Nc4cccc(Sc5cnc(N6CCC(C)(N)CC6)cn5)c4)CC3)nc2)C(C)(C)C)cc1 [Compound 78] |
| < 100 nM | < 100 nM | 100 to 1000 nM |  |  |  | CC1(N)CCN(c2cnc(Sc3cccc(NC(=O)CCCCCCCOC4CCN(c5ncc(C(=O)NCc6ccc7c(c6)CN(C6CCC(=O)NC6=O)C7=O)cn5)CC4)c3)cn2)CC1 (stereo not drawn) [Compound 79] |
| < 100 nM | < 100 nM | < 100 nM |  |  |  | Cc1ncsc1-c1ccc([C@H](C)NC(=O)[C@@H]2C[C@@H](O)CN2C(=O)[C@@H](NC(=O)c2cnc(N3CC(OCCCCCCC(=O)Nc4cccc(Sc5cnc(N6CCC(C)(N)CC6)cn5)c4)C3)nc2)C(C)(C)C)cc1 [Compound 86] |
|  | < 100 nM |  | < 1000 nM | < 1000 nM |  | CC1(N)CCN(c2cnc(Sc3cccc(NC(=O)CCCCCCCO[C@H]4CCN(Cc5ccc(COc6cccc7c6CN(C6CCC(=O)NC6=O)C7=O)cc5)C4)c3)cn2)CC1 (stereo partly drawn) [Compound 96] |
| < 100 nM | < 100 nM | < 100 nM |  |  |  | CC1(N)CCN(c2cnc(Sc3cccc(NC(=O)CCCCCCCN4CC5CN(c6ccc(C(=O)NCc7ccc8c(c7)CN(C7CCC(=O)NC7=O)C8=O)nn6)CC5C4)c3)cn2)CC1 (stereo not drawn) [Compound 100] |
| < 100 nM | < 100 nM | < 100 nM |  |  | < 1000 nM | CC1CN(c2ccc(C(=O)NCc3ccc4c(c3)CN(C3CCC(=O)NC3=O)C4=O)nn2)CC(C)N1CCCCCCCCC(=O)Nc1cccc(Sc2cnc(N3CCC(C)(N)CC3)cn2)c1 (stereo not drawn) [Compound 138] |
|  | < 100 nM |  | 1000 to 5000 nM |  |  | CN(Cc1ccc2c(c1)CN(C1CCC(=O)NC1=O)C2=O)C(=O)c1ccc(N2CCN(CCCCCCCCC(=O)Nc3cccc(Sc4cnc(N5CCC(C)(N)CC5)cn4)c3)C(C(F)(F)F)C2)nn1 (stereo not drawn) [Compound 175] |
| 100 to 1000 nM | < 100 nM | < 100 nM |  |  |  | CC1(N)CCN(c2cnc(Sc3cccc(NC(=O)CCCCCOC4CC5(CCN(c6ccc(C(=O)NCc7ccc8c(c7)CN(C7CCC(=O)NC7=O)C8=O)cc6F)CC5)C4)c3)cn2)CC1 (stereo not drawn) [Compound 176] |
| < 100 nM | < 100 nM | < 100 nM | 1000 to 5000 nM |  |  | CC1(N)CCN(c2cnc(Sc3cccc(NC(=O)CCCCCCN4CC5(CCN(c6ncc(C(=O)NCc7ccc8c(c7)CN(C7CCC(=O)NC7=O)C8=O)cc6Cl)C5)C4)c3)cn2)CC1 (stereo not drawn) [Compound 181] |
| < 100 nM | < 100 nM | < 100 nM |  |  |  | CC1(N)CCN(c2cnc(Sc3cccc(NC(=O)CCCCCCN4CC5(CCN(c6ccc(C(=O)NCc7ccc8c(c7)CN(C7CCC(=O)NC7=O)C8=O)nc6)C5)C4)c3)cn2)CC1 (stereo not drawn) [Compound 186] |
| < 100 nM | < 100 nM | < 100 nM |  |  |  | CC1(N)CCN(c2cnc(Sc3cccc(NC(=O)CCCCCCCCN4CC=C(c5ccc(C(=O)NCc6ccc7c(c6)CN(C6CCC(=O)NC6=O)C7=O)nn5)CC4)c3)cn2)CC1 (stereo not drawn) [Compound 188] |
| < 100 nM | < 100 nM | < 100 nM |  |  |  | CC1(N)CCN(c2cnc(Sc3cccc(NC(=O)CCCCCCN4CC5(CCN(c6ccc(C(=O)NCc7ccc8c(c7)CN(C7CCC(=O)NC7=O)C8=O)nc6Cl)C5)C4)c3)cn2)CC1 (stereo not drawn) [Compound 200] |
| < 100 nM | < 100 nM | < 100 nM |  |  |  | CC1(N)CCN(c2cnc(Sc3cccc(NC(=O)CCCCCCN4CC5(CC=C(c6ccc(C(=O)NCc7ccc8c(c7)CN(C7CCC(=O)NC7=O)C8=O)nn6)CC5)C4)c3)cn2)CC1 (stereo not drawn) [Compound 207] |
| < 100 nM |  | < 100 nM |  |  |  | CC1(N)CCN(c2cnc(Sc3cccc(NC(=O)c4ccc(N5CCC(N6CC=C(c7ccc(C(=O)NCc8ccc9c(c8)CN(C8CCC(=O)NC8=O)C9=O)cc7)CC6)CC5)cc4)c3)cn2)CC1 (stereo not drawn) [Compound 446] |
| < 100 nM |  | < 100 nM |  |  |  | CC1(N)CCN(c2cnc(Sc3cccc(NC(=O)c4ccc(N5CCC(N6CCN(c7ccc(C(=O)NCc8ccc9c(c8)CN(C8CCC(=O)NC8=O)C9=O)nc7)CC6)CC5)cn4)c3)cn2)CC1 (stereo not drawn) [Compound 448] |
| < 100 nM |  | < 100 nM |  |  |  | CC1(N)CCN(c2cnc(Sc3cccc(NC(=O)c4ncc(N5CCC(N6CCN(c7ccc(C(=O)NCc8ccc9c(c8)CN(C8CCC(=O)NC8=O)C9=O)nc7)CC6)CC5)cn4)c3)cn2)CC1 (stereo not drawn) [Compound 451] |
| < 100 nM |  | < 100 nM |  |  |  | Cc1cc(N2CCC(N3CC=C(c4cnc(C(=O)NCc5ccc6c(c5)CN(C5CCC(=O)NC5=O)C6=O)cc4C)CC3)CC2)ccc1C(=O)Nc1cccc(Sc2cnc(N3CCC(C)(N)CC3)cn2)c1 (stereo not drawn) [Compound 457] |
| < 100 nM |  | < 100 nM |  |  |  | Cc1cc(C(=O)NCc2ccc3c(c2)CN(C2CCC(=O)NC2=O)C3=O)ncc1C1=CCN(C2CCN(c3ccc(C(=O)Nc4cccc(Sc5cnc(N6CCC7(CC6)CO[C@@H](C)[C@H]7N)cn5)c4)cc3F)CC2)CC1 (stereo partly drawn) [Compound 465] |
| 100 to 1000 nM |  | < 100 nM |  |  |  | CC1(N)CCN(c2cnc(Sc3cccc(NC(=O)c4ccc(N5CCC(N6CC=C(c7ccc(C(=O)NCc8ccc9c(c8)CN(C8CCC(=O)NC8=O)C9=O)nc7F)CC6)CC5)c(F)c4)c3)cn2)CC1 (stereo not drawn) [Compound 467] |
